Laboratory results from patent publication US7026304B2, “2-alkylated-cyclodextrin derivatives: reversal agents for drug-induced neuromuscular block” (Akzo Nobel N.V., priority 2001, dated 2006).
Like-named read-outs stand apart in the source and are kept apart here.

What was measured:
[1] = test system: steady-state neuromuscular block induced by the muscle relaxant rocuronium bromide (Roc); settings: anaesthetized guinea pigs, as already described in WO 01/12202, cited from earlier work
[2] = test system: steady-state neuromuscular block induced by the muscle relaxant rocuronium bromide (Roc); assay: Reversal of neuromuscular blockade in anaesthetized guinea pigs in vivo; design: species or system guinea pig
Description: Reversal of Neuromuscular Blockade in Anaesthetized Guinea Pigs in vivo Male Dunkin-Hartley guinea pigs (bodyweight: 600–900 g) were anaesthetized by i.p. administration of 10 mg/kg pentobarbitone and 1000 mg/kg urethane. After tracheotomy, the animals were artificially ventilated using a Harvard small animal ventilator. A catheter was placed into the carotid artery for continuous monitoring of arterial blood pressure and the taking of blood samples for blood gas analysis. Heart rate was derived from the blood pressure signal. The sciatic nerve was stimulated (rectangular pulses of 0.5 ms duration at 10 s (0.1 Hz) intervals at a supramaximal voltage, using a Grass S88 Stimulator) and the force of M. gastrocnemius contractions was measured using a Grass FT03 force-displacement transducer. Contractions, blood pressure and heart rate were recorded on a multichannel Grass 7D recorder. Catheters were placed in both jugular veins. One catheter was used for the continuous infusion of a neuromuscular blocking agent. […] The other catheter was used for administration of increasing doses of the reversal agent. During continuous infusion of the neuromuscular blocking agent, single doses of increasing concentration of reversal agent were given.

[3] = anaesthetized guinea pigs, rocuronium bromide-induced steady-state block
[4] = anaesthetized guinea pigs, rocuronium bromide-induced steady-state block, dose at which % max reversal was reached
[5] = anaesthetized male Dunkin-Hartley guinea pigs, rocuronium bromide infusion to steady-state block of 85–90%, reversal agent i.v. in increasing doses

| Compound | % max reversal [2, 3] | concentration at maximum reversal [2, 4] | ED50, dose producing 50% reversal of steady-state neuromuscular block [2, 5] | other results |
| --- | --- | --- | --- | --- |
| OC[C@H]1O[C@@H]2O[C@H]3[C@H](O)[C@@H](O)[C@@H](O[C@H]4[C@H](O)[C@@H](O)[C@@H](O[C@H]5[C@H](O)[C@@H](O)[C@@H](O[C@H]6[C@H](O)[C@@H](O)[C@@H](O[C@H]7[C@H](O)[C@@H](O)[C@@H](O[C@H]8[C@H](O)[C@@H](O)[C@@H](O[C@H]1[C@H](O)[C@H]2O)O[C@@H]8CO)O[C@@H]7CO)O[C@@H]6CO)O[C@@H]5CO)O[C@@H]4CO)O[C@@H]3CO [β-cyclodextrin] |  |  |  | ED50, dose producing 50% reversal of steady-state neuromuscular block ([1]; parent cyclodextrins for comparison): 20 µmol/kg; % max reversal ([1]; parent cyclodextrins): 93%; dose at maximum reversal ([1]; parent cyclodextrins): (113) μmol · kg^−1 |
| O=C([O-])CCSCCCO[C@H]1[C@H]2O[C@H]3[C@H](O)[C@@H](OCCCSCCC(=O)[O-])[C@@H](O[C@H]4[C@H](O)[C@@H](OCCCSCCC(=O)[O-])[C@@H](O[C@H]5[C@H](O)[C@@H](OCCCSCCC(=O)[O-])[C@@H](O[C@H]6[C@H](O)[C@@H](OCCCSCCC(=O)[O-])[C@@H](O[C@H]7[C@H](O)[C@@H](OCCCSCCC(=O)[O-])[C@@H](O[C@H]8[C@H](O)[C@@H](OCCCSCCC(=O)[O-])[C@@H](O[C@H]9[C@H](O)[C@@H](OCCCSCCC(=O)[O-])[C@@H](O[C@@H]([C@@H]1O)[C@@H](CO)O2)O[C@@H]9CO)O[C@@H]8CO)O[C@@H]7CO)O[C@@H]6CO)O[C@@H]5CO)O[C@@H]4CO)O[C@@H]3CO.[Na+].[Na+].[Na+].[Na+].[Na+].[Na+].[Na+].[Na+] [Example 6, Octakis per-2-O-(6-carboxy-4-thia-hexyl)-γ-cyclodextrin, Na salt] |  |  |  | % max reversal ([2]; guinea pig, in vivo): 86%; concentration at maximum reversal ([2]; guinea pig, in vivo): (16) μmol · kg^−1; ED50, dose producing 50% reversal of steady-state neuromuscular block ([2]; guinea pig, in vivo, iv): 3.4 µmol/kg |
| O=C([O-])c1ccc(CO[C@H]2[C@H]3O[C@H]4[C@H](O)[C@@H](OCc5ccc(C(=O)[O-])cc5)[C@@H](O[C@H]5[C@H](O)[C@@H](OCc6ccc(C(=O)[O-])cc6)[C@@H](O[C@H]6[C@H](O)[C@@H](OCc7ccc(C(=O)[O-])cc7)[C@@H](O[C@H]7[C@H](O)[C@@H](OCc8ccc(C(=O)[O-])cc8)[C@@H](O[C@H]8[C@H](O)[C@@H](OCc9ccc(C(=O)[O-])cc9)[C@@H](O[C@H]9[C@H](O)[C@@H](OCc%10ccc(C(=O)[O-])cc%10)[C@@H](O[C@H]%10[C@H](O)[C@@H](OCc%11ccc(C(=O)[O-])cc%11)[C@@H](O[C@@H]([C@@H]2O)[C@@H](CO)O3)O[C@@H]%10CO)O[C@@H]9CO)O[C@@H]8CO)O[C@@H]7CO)O[C@@H]6CO)O[C@@H]5CO)O[C@@H]4CO)cc1.[Na+].[Na+].[Na+].[Na+].[Na+].[Na+].[Na+].[Na+] [Example 3, Octakis per-2-O-(4-carboxybenzyl)-γ-cyclodextrin, Na salt] | 97% | (0.8) μmol · kg^−1 | 0.20 µmol/kg |  |
| O=S(=O)([O-])CCSCCCO[C@H]1[C@H]2O[C@H]3[C@H](O)[C@@H](OCCCSCCS(=O)(=O)[O-])[C@@H](O[C@H]4[C@H](O)[C@@H](OCCCSCCS(=O)(=O)[O-])[C@@H](O[C@H]5[C@H](O)[C@@H](OCCCSCCS(=O)(=O)[O-])[C@@H](O[C@H]6[C@H](O)[C@@H](OCCCSCCS(=O)(=O)[O-])[C@@H](O[C@H]7[C@H](O)[C@@H](OCCCSCCS(=O)(=O)[O-])[C@@H](O[C@H]8[C@H](O)[C@@H](OCCCSCCS(=O)(=O)[O-])[C@@H](O[C@H]9[C@H](O)[C@@H](OCCCSCCS(=O)(=O)[O-])[C@@H](O[C@@H]([C@@H]1O)[C@@H](CO)O2)O[C@@H]9CO)O[C@@H]8CO)O[C@@H]7CO)O[C@@H]6CO)O[C@@H]5CO)O[C@@H]4CO)O[C@@H]3CO.[Na+].[Na+].[Na+].[Na+].[Na+].[Na+].[Na+].[Na+] [Example 8, Octakis per-2-O-(6-sulfo-4-thia-hexyl)-γ-cyclodextrin, Na salt] | 85% | (4.5) μmol · kg^−1 | 1.4 µmol/kg |  |
| OCC(O)CSCCCO[C@H]1[C@H]2O[C@H]3[C@H](O)[C@@H](OCCCSCC(O)CO)[C@@H](O[C@H]4[C@H](O)[C@@H](OCCCSCC(O)CO)[C@@H](O[C@H]5[C@H](O)[C@@H](OCCCSCC(O)CO)[C@@H](O[C@H]6[C@H](O)[C@@H](OCCCSCC(O)CO)[C@@H](O[C@H]7[C@H](O)[C@@H](OCCCSCC(O)CO)[C@@H](O[C@H]8[C@H](O)[C@@H](OCCCSCC(O)CO)[C@@H](O[C@@H]([C@@H]1O)[C@@H](CO)O2)O[C@@H]8CO)O[C@@H]7CO)O[C@@H]6CO)O[C@@H]5CO)O[C@@H]4CO)O[C@@H]3CO (stereo partly drawn) [Example 9, Heptakis per-2-O-(6,7-dihydroxy-4-thia-heptyl)-β-cyclodextrin] | 93% | (6.4) μmol · kg^−1 | 1.10 µmol/kg |  |
| Octakis per-2-O-(3-carboxybenzyl)-γ-cyclodextrin, Na salt [Example 2] | 104% | (4.8) μmol · kg^−1 | 0.38 µmol/kg |  |
| O=C([O-])c1ccccc1CO[C@H]1[C@H]2O[C@H]3[C@H](O)[C@@H](OCc4ccccc4C(=O)[O-])[C@@H](O[C@H]4[C@H](O)[C@@H](OCc5ccccc5C(=O)[O-])[C@@H](O[C@H]5[C@H](O)[C@@H](OCc6ccccc6C(=O)[O-])[C@@H](O[C@H]6[C@H](O)[C@@H](OCc7ccccc7C(=O)[O-])[C@@H](O[C@H]7[C@H](O)[C@@H](OCc8ccccc8C(=O)[O-])[C@@H](O[C@H]8[C@H](O)[C@@H](OCc9ccccc9C(=O)[O-])[C@@H](O[C@H]9[C@H](O)[C@@H](OCc%10ccccc%10C(=O)[O-])[C@@H](O[C@@H]([C@@H]1O)[C@@H](CO)O2)O[C@@H]9CO)O[C@@H]8CO)O[C@@H]7CO)O[C@@H]6CO)O[C@@H]5CO)O[C@@H]4CO)O[C@@H]3CO.[Na+].[Na+].[Na+].[Na+].[Na+].[Na+].[Na+].[Na+] [Example 4, Octakis per-2-O-(2-carboxybenzyl)-γ-cyclodextrin, Na salt] | 84% | (15) μmol · kg^−1 | 3.4 µmol/kg |  |
| O=C([O-])CSCCCO[C@H]1[C@H]2O[C@H]3[C@H](O)[C@@H](OCCCSCC(=O)[O-])[C@@H](O[C@H]4[C@H](O)[C@@H](OCCCSCC(=O)[O-])[C@@H](O[C@H]5[C@H](O)[C@@H](OCCCSCC(=O)[O-])[C@@H](O[C@H]6[C@H](O)[C@@H](OCCCSCC(=O)[O-])[C@@H](O[C@H]7[C@H](O)[C@@H](OCCCSCC(=O)[O-])[C@@H](O[C@H]8[C@H](O)[C@@H](OCCCSCC(=O)[O-])[C@@H](O[C@H]9[C@H](O)[C@@H](OCCCSCC(=O)[O-])[C@@H](O[C@@H]([C@@H]1O)[C@@H](CO)O2)O[C@@H]9CO)O[C@@H]8CO)O[C@@H]7CO)O[C@@H]6CO)O[C@@H]5CO)O[C@@H]4CO)O[C@@H]3CO.[Na+].[Na+].[Na+].[Na+].[Na+].[Na+].[Na+].[Na+] [Example 7, Octakis per-2-O-(5-carboxy-4-thia-pentyl)-γ-cyclodextrin, Na salt] | 91% | (10) μmol · kg^−1 | 1.12 µmol/kg |  |
| OCCOCCSCCCO[C@H]1[C@H]2O[C@H]3[C@H](O)[C@@H](OCCCSCCOCCO)[C@@H](O[C@H]4[C@H](O)[C@@H](OCCCSCCOCCO)[C@@H](O[C@H]5[C@H](O)[C@@H](OCCCSCCOCCO)[C@@H](O[C@H]6[C@H](O)[C@@H](OCCCSCCOCCO)[C@@H](O[C@H]7[C@H](O)[C@@H](OCCCSCCOCCO)[C@@H](O[C@H]8[C@H](O)[C@@H](OCCCSCCOCCO)[C@@H](O[C@@H]([C@@H]1O)[C@@H](CO)O2)O[C@@H]8CO)O[C@@H]7CO)O[C@@H]6CO)O[C@@H]5CO)O[C@@H]4CO)O[C@@H]3CO [Example 10, Heptakis per-2-O-(9-hydroxy-7-oxa-4-thia-nonyl)-β-cyclodextrin] | 72% | (12) μmol · kg^−1 | 5.6 µmol/kg |  |
| O=C([O-])c1ccc(CO[C@H]2[C@H]3O[C@H]4[C@H](O)[C@@H](O)[C@@H](O[C@H]5[C@H](O)[C@@H](O)[C@@H](O[C@H]6[C@H](O)[C@@H](O)[C@@H](O[C@H]7[C@H](O)[C@@H](O)[C@@H](O[C@H]8[C@H](O)[C@@H](O)[C@@H](O[C@H]9[C@H](O)[C@@H](O)[C@@H](O[C@H]%10[C@H](O)[C@@H](O)[C@@H](O[C@@H]([C@@H]2O)[C@@H](CO)O3)O[C@@H]%10CO)O[C@@H]9CO)O[C@@H]8CO)O[C@@H]7CO)O[C@@H]6CO)O[C@@H]5CO)O[C@@H]4CO)cc1.[Na+] [Example 5, Mono-2-O-(4-carboxybenzyl)-γ-cyclodextrin sodium salt] | 96% | (2.6) μmol · kg^−1 | 0.25 µmol/kg |  |
